These results are taken from patent US20030186943A1, “Substituted gamma-phenyl-delta-lactams and uses related thereto” (Inflazyme Pharmaceuticals Ltd., priority 1998, published 2003).

Assay [1] deals with High Affinity Rolipram Binding Site of PDE4 in Mouse Brain. In words: Displacement of [3H]-rolipram from its high affinity binding site (HARBS). The following applies: ratio of IC50 for PDE4 catalytic activity to concentration displacing 50% of rolipram from HARBS. (Displacement assays read how much labelled ligand stays bound in the presence of the test substance.)
In assay [2] the test system is K562 chronic myelogenous leukemia cells. In words: Anti-proliferative activity in K562 cells (3H-thymidine uptake). In kind it is cell-based, human. As for the experimental part:
90 μL K562 cells (human chronic myelogenous leukemia cells) were seeded into sterile 96-well assay plates at a density of 1×10^5 cells/mL in RPMI 1640 supplemented with 10% FBS/2 mM L-glutamine. Samples to be tested were prepared in a sterile 96-well assay plate at 10×the final concentration desired. All sample dilutions contained equal amounts of DMSO to compensate for the % DMSO in the highest sample concentration used. Nine concentrations of test compound were examined for effects on growth up to a maximal concentration of 100 μM. 10 μL of the samples and controls (DMSO/normal growth control) were added to the aliquoted cells. The cells were incubated at 37° C./5% CO2 for 48 hours. Following 48 hour incubation, 20 μL of 3H-thymidine was added to each well for a final concentration of 1 μCi/mL. The cells were then incubated at 37° C./5% CO2 for 4 to 6 hours. Following 4-6 hour thymidine pulse, plates were wrapped in plastic and frozen in a −20° C. frost-free freezer overnight. Cells were harvested and ^3H-thymidine counts determined. In order to distinguish between cytotoxicity and cytostatic activity, growth curves were prepared where the average CPM value of the seeding density of cells was plotted on the same curve as the average CPM value for the maximum proliferation attained after 48 hours (DMSO growth control cells). The cells were diluted 1:2 for a concentration range of 7.8×10^3 cells/mL to 2×10^6 cells/mL. 90 μL of each cell dilution was seeded in sterile 96-well assay plated and allowed to equilibrate for approximately 4 hours at 37° C./5% CO2 prior to ^3H-thymidine pulse. The data in Table 15 was obtained as described above, and more specifically, K562 cells were seeded into 96-well plates at 1×10^5 cells/mL in RPMI 1640 supplemented with 10% FBS/2 mM L-glutamine. Various concentrations of test compound or vehicle (DMSO) was added and the cells were incubated at 37° C./5 CO2 for 48 hours. The cells were then pulsed at 37° C./5% CO2 for 4 to 6 hours with 1 μCi/mL ^3H-thymidine. Radioactivity incorporated into DNA was determined after harvesting onto glass fiber filters and scintillation counting.

The test system of assay [3] is TNBS-induced colitis in the rat. The following applies: dose reduced to 50 mg/kg; cited from earlier work.
Assay [4] has the same test system. In words: TNBS-induced colitis model of inflammatory bowel disease in the rat.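 Note: rat colitis induced by intracolonic TNBS in 50% ethanol, distal colon assessed at sacrifice on day 7, with saline-instilled vehicle-treated rats as controls.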
Experimental: Colitis was induced by intracolonic instillation of the hapten TNBS (60 mg/mL) in 0.5 mL of 50% ethanol. […] An additional group of rats received saline intracolonically in place of TNBS/ethanol and was treated with vehicle at the same times as outlined above. Body weights were recorded at the beginning of the study and at days 2 and 7.
The rats were sacrificed on the 7th day after the induction of colitis and the extent of damage and inflammation was assessed. After the rats were sacrificed, the distal colon was removed and pinned out on a wax platform. The presence or absence of diarrhea was noted, as well as the presence and severity of adhesions between the colon and other organs, and the severity and extent of colonic damage. […] After scoring, a sample of colonic tissue was excised for measurement of myeloperoxidase activity as an index of granulocyte infiltration (see Wallace et al., Gastroenterology 117: in press, 1999; and Morris et al., Gastroenterology 96:795-803, 1989). This tissue sample was 1 cm long (along the axis of the colon) and 5 mm wide and was taken from a region of macroscopically visible damage (or the corresponding region in any rats in which there was no damage). The remainder of the tissue was fixed in neutral buffered formalin and processed by routine methods for subsequent evaluation by light microscopy. In a blinded manner, the sample of colonic tissue from each rat was examined for evidence of mucosal ulceration and inflammation. The percentage of the luminal surface of the section in which ulceration was present was calculated.
Assay [5] has as its system High Affinity Rolipram Binding Site of PDE4 in Mouse Brain. The following applies: values reported for second-generation PDE4 inhibitors; cited from earlier work.
Assay [6] concerns TNF-α production in concanavalin-A stimulated primary human CD4+ T-lymphocytes. In words: TNF-α production in Con-A stimulated human CD4+ T-cells (ELISA). The format is cell-based. The following applies: T-lymphocyte, X marks this range, read-out: TNF-alpha IC50 RANGE (μM) <2. The protocol: Activated T-lymphocytes are known to produce TNF-α and may constitute a significant source of this important inflammatory mediator in localized regions of inflammation such as the rheumatoid synovium or psoriatic lesions. Supernatants from cona-stimulated primary human CD4+ T-cells that had been incubated in the presence or absence of a test compound were analyzed for TNF-α using an ELISA system. (Pharingen; recommended anti-TNF antibody set 18631-D and 18642-D). Substantial quantities of TNF-α were induced in vehicle treated T-cells stimulated with conA. […] This may be due to the differing sensitivity of monocyte/macrophages versus T-lymphocytes to elevations in intracellular cAMP with respect to regulatory pathways impacting TNF-α production.
(§1) Approximately 60 cc of whole human blood was collected into ACD anti-coagulant vacutainer tubes. 15 mL Ficoll Paque 1077 was aliquoted into 6 sterile 50 mL conical tubes. 10 mL of blood was slowly layered on top of the Ficoll Paque by holding the tube upright and resting the pipette tip at the inside edge of the tube and allowing the blood to slowly run down the side of the tube. Tubes were spun at 1700 rpm for 30 minutes at room temperature. The plasma layer above the leukocyte band was aspirated off and a pasteur pipette was used to lift off the leukocyte band and transfer it to a sterile 50 mL conical tube. Cells from each leukocyte gradiant tube were transferred to a separate 50 mL conical tube. Sterile PBS pH 7.4 was added to each 50 mL conical tube containing cells from leukocyte band to a volume of 50 mL. Tubes were spun at 1100 rpm for 10 minutes. Supernatant was aspirated off and the cells were resuspended in 50 mL PBS pH 7.4. Tubes were re-centrifuged at 1100 rpm for 10 minutes. Supernatant was aspirated off and the cells were resuspended in appropriate medium at a density of 5×10^7 cells/mL or 2×10^6 cells/mL.
(§2) CD 4+T-cell Preparation: Cells from Leukocyte preparation were resuspended in sterile PBS pH 7.4 supplemented with 2-6% Fetal Bovine Serum (FBS) at a density of 5×10^7 cells/mL. Cells were then ready for isolation.
(§3) 100 μL of antibody cocktail (Stem Cell Technologies, Catalogue No. 14062) was added for each mL of cells and mixed well. Cells+Ab cocktail was incubated on ice for 30 minutes. After 30 minute incubation, 60 μL of magnetic colloid was added for each mL of cells, and mixed well. Cells+Ab cocktail+magnetic colloid were incubated on ice for 30 minutes. After a final 30 minute incubation cells were ready for magnetic cell separation.
(§4) Sample was loaded into the top of a column. The stopcock was turned to allow the flow of media down through the column, and the media was collected into a collection tube. PBS supplemented with 2-6% FBS was added to the column until three column volumes had been collected (not including the volume of the start sample). Cells were washed, counted, and resuspended in RPMI 1640 with 10% FBS+2 mM L-glutamine at a density of 1×10^6 cells/mL.
(§5) CD4+ T-cells were isolated as described above. Cells were suspended in RPMI 1640 media (Stem Cell Technologies Inc.; Catalogue No. 36750) with 10% FBS+2 mM L-glutamine at a density of 1×10^6 cells/mL. Cells were maintained on ice as test compounds were prepared. Test compounds were prepared in a sterile 96-well assay plate at 50×the final desired test concentration, all wells contained an equal amount of dimethylsulfoxide vehicle. 500 μL of CD4^+ T-cells were added to each well of 24-well assay plate. 10 μL of each test compound working solution was added to the appropriate wells; two wells were left as stimulated and non-stimulated controls. 10 μL of concanavalin A (50×the final concentration) at 10 μg/mL was added to each well with the exception of the non-stimulated control wells. Cells were incubated at 37° C. for 48 hours. Conditioned media is then assessed by ELISA for the quantity of IL-2, […], TNFα and IL-10 present.
(In an ELISA, binding on a coated surface is turned into a signal by an enzyme label.)

The subject of assay [7] is IL-2 production in concanavalin A stimulated primary human CD4+ T-cells. In words: IL-2 production (Th1 profile) in concanavalin A stimulated primary human CD4+ T-cells. The following applies: Homo sapiens, T-cell; 10 μg/mL Concanavalin A, 48 hours; X marks this range; read-out: IL-2 IC50 RANGE (μM) 0.2-2.0. The format is cell-based.
Text: (§6) The assay on the primary human T-cells involves their activation by concanavalin A (conA); (Sigma, Catalogue No. C 5275), followed by ELISA detection for cytokines for either profile. In the case of Th1-profiles, IL-2 and INF-γ are used as benchmarks while IL-10 is the indicator for a Th2-profile. Biologically, these indicators are useful in that IL-2 is the major T-cell mitogen while IL-10 represents a powerful yet selective immunosuppressive agent.
as §1, §2, §3, §4, §5
(§7) Tables 5A, 5B and 5C represent a synopsis of data across individuals with respects to the potency of compounds of the invention in their ability to inhibit cytokines that are likely to promote or depress a Th1 or Th2 response. […]

Assay [8] deals with IFN-gamma production in concanavalin A stimulated primary human CD4+ T-cells. In words: IFN-gamma production (Th1 profile) in concanavalin A stimulated primary human CD4+ T-cells. The following applies: T-cell, 10 μg/mL Concanavalin A, 48 hours, X marks this range, read-out: INF-GAMMA IC50 RANGE (μM) 0.2-2.0. In kind it is cell-based.
Text: as §6, §1, §2, §3, §4, §5, §7

The subject of assay [9] is IL-10 production in concanavalin A stimulated primary human CD4+ T-cells. In words: IL-10 production (Th2 profile) in concanavalin A stimulated primary human CD4+ T-cells. The format is cell-based. The following applies: T-cell, 10 μg/mL Concanavalin A, 48 hours, X marks this range, read-out: IL-10 IC50 RANGE (μM) 0.02-0.2.
Text: as §6, §1, §2, §3, §4, §5, §7

[10] abbreviates: 100 mg/kg intracolonically at 12 h intervals for one week.
The mark [11] stands for this setting: 100 mg/kg intracolonically at 12 h intervals for one week, day 7.

Regarding `COc1ccc([C@H]2COC(=O)C(Cc3ccc(O)c(O)c3)C2)cc1OC1CCCC1` (stereo partly drawn) [Compound 179], the “PDE4:HARBS” value in assay [1] is less than 1. The “effect on proliferative ability / cell cycle of K-562 cells” value in assay [2] is “cell cycle arrest”.

Take `Nc1ccc(O)c(C(=O)OCCCCO[N+](=O)[O-])c1` [NCX-456]: the “therapeutic effects in TNBS model at reduced dose” value in assay [3] is reported as “lost”. In addition, in [4] (setting [10]), the “Body Weight Change (%)” value is −5.7 ± 0.3% and the Mortality was 1/8. Besides, in [4] (setting [11]), the “Adhesion (Incidence)” value was “(2/7)^ζ”, the “Adhesion Score” value came to 0.4 ± 0.3, the “Bowel Thickness (mm)” value stood at 2.02 ± 0.42 mm and the “Damage Score” value amounted to 3.7 ± 0.9. The “Global Colitis Score” value in assay [4] (setting [11]) was found to be 6.60 ± 1.67. In addition, in [4] (100 mg/kg, one week), the “reduction in the colonic damage score” value was found to be 50%. Besides, the “MPO Activity (U/mg)” value in assay [4] (colonic tissue, 100 mg/kg intracolonically at 12 h intervals for one week, day 7) turned out to be 57.8 ± 11.6 U/mg. In addition, the Diarrhea in [4] (incidence, 100 mg/kg intracolonically at 12 h intervals for one week, day 7) is listed as 3/7. Also, the “Histology Score” value in assay [4] (percentage of luminal surface ulcerated, 100 mg/kg intracolonically for one week, day 7) is 46.4 ± 4.1.

With `COc1ccc(C(=O)Nc2c(Cl)cncc2Cl)cc1OC1CCCC1` [RP 73401], the “ratio of IC50's for PDE4catalytic to PDE4HARBS (reported)” value in assay [5] is 3.

Take `COc1ccc([C@]2(C#N)CC[C@@H](C(=O)O)CC2)cc1OC1CCCC1` [SB 207499]: the “ratio of IC50's for PDE4catalytic to PDE4HARBS (reported)” value in [5] is 1.

One may read the IC50 as the concentration needed to halve the response being measured. Regarding `COc1cc(-c2ccc(=O)[nH]n2)ccc1OC(F)F` [Zardaverine, reference compound], the IC50 was less than 2 µM in assay [6]; 0.2 to 2 µM in assay [7]; 0.2 to 2 µM in assay [8]; 0.02 to 0.2 µM in assay [9]; greater than 50 µM in [2] (Homo sapiens, K562, 48 hours, 3H-thymidine, X marks this range, read-out: IC50 range (μM) >50).
